Where two headings read alike, the source gives them in different places.
Legend:
aconitate hydratase (AH) [1] = tested on: T1, aconitate hydratase (AH); settings: read-out: Citrate / Km; enzyme from cells grown at pH 5.5; 50 mM Tris-HCl pH 7.8, 25 °C; partially purified
T1 construct: gene ACO1

aconitate hydratase (AH) [2] = tested on: T2, aconitate hydratase (AH); test: spectrophotometric at […] nm; Lineweaver-Burk; type: biochemical, Yarrowia lipolytica; settings: enzyme from cells grown at pH 5.5; 50 mM Tris-HCl pH 7.8, 25 °C; partially purified; reverse reaction; read-out: Isocitrate / Km
T2 construct: gene ACO1; cells grown at pH 5.5; [4Fe-4S] enzyme

| Structure (SMILES) | Km (aconitate hydratase (AH) [1]) [µM] | Km (aconitate hydratase (AH) [2]) [µM] |
| --- | --- | --- |
| O=C(O)CC(O)(CC(=O)O)C(=O)O [citrate] | 320 ± 11 | – |
| O=C(O)C[C@H](C(=O)O)[C@@H](O)C(=O)O [isocitrate] | – | 270 ± 15 |

Source: PMC10143702, “Kinetic and Regulatory Properties of Yarrowia lipolytica Aconitate Hydratase as a Model-Indicator of Cell Redox State under pH Stress” (International Journal of Molecular Sciences, 2023)
